{"source": "patent US11173217B2", "about": "“Methods and compositions for near infrared fluorescent nanodots with aggregation-induced emission characteristics” (priority 2016, dated 2021)", "origin": "cited, not measured here", "settings": "in DMSO; cited from earlier work"}
{"compound": "CC1(C)C(/C=C/C=C/C=C/C=C2\\N(CCCCS(=O)(=O)[O-])c3ccc4ccccc4c3C2(C)C)=[N+](CCCCS(=O)(=O)[O-])c2ccc3ccccc3c21.[Na+]", "note": "[IR-125]", "values": [{"measurement": "quantum yield of reference", "result": 13, "unit": "%"}]}
